Test results from BindingDB's records for PubMed 37713805 (University of Michigan).

Target: Mitogen-activated protein kinase kinase kinase 12 (Homo sapiens) (UniProt Q12852)
Assay: Binding affinity to DLK (unknown origin) assessed as inhibition constant

Sequence of Mitogen-activated protein kinase kinase kinase 12 (Homo sapiens) (Q12852 whole entry, looked up): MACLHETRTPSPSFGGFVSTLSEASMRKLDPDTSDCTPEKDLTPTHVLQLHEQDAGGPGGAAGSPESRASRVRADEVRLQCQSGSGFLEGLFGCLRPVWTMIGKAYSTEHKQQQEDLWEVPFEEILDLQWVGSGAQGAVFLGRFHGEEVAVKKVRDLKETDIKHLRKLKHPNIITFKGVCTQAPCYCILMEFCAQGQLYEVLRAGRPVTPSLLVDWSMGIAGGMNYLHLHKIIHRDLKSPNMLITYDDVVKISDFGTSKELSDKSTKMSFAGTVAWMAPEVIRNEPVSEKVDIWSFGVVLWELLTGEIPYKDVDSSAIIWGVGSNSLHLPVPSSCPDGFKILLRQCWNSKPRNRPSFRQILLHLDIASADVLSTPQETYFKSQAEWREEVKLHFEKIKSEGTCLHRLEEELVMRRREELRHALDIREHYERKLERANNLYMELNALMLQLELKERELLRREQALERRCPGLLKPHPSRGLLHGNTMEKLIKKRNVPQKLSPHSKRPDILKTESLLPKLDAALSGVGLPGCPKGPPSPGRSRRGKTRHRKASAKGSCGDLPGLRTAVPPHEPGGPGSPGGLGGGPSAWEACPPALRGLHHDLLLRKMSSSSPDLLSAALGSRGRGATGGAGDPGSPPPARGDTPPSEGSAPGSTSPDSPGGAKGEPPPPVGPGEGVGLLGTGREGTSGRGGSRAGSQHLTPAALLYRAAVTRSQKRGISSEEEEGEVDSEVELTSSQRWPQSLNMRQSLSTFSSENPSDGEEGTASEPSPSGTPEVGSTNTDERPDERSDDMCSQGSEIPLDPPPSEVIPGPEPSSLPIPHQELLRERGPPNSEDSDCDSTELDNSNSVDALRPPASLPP

Ki: 25 nM
SMILES: CC(=O)N1CCC(c2cc(Nc3cc(C#N)ccn3)nc(N3CCC(F)(F)C3)c2)CC1
